Experimental data reported in patent publication US20250295570A1, “PEPTIDE HAVING ACTIVITY OF IMPROVING STATE OF SKIN, AND USE THEREOF” (CAREGEN CO., LTD., priority 2021, published 2025).

Legend:
Assay type in all cases: cell-based, mouse
NIH3T3 cells [1] = test: Inhibition of apoptosis of skin cells induced by ultraviolet rays (SRB survival rate); conditions: 50 μM or 100 μM peptide, 6 J/cm2 ultraviolet rays, 72 hours, FIG. 4
Description: In this example, the aim was to confirm the effect of the peptide according to an example on the inhibition of apoptosis or cell recovery of skin cells induced by ultraviolet rays, by evaluating the change in survival rate of skin cells whose apoptosis was induced by ultraviolet irradiation.
Specifically, NIH3T3 cells were seeded in a […] at a density of 1×10^4 cells/well and cultured for 24 hours. The cells were then washed once with serum-free DMEM media, the culture medium was replaced with serum-free DMEM media, and 50 μM or 100 μM of the peptide consisting of the amino acid sequence of SEQ ID NO: 1 was dispensed to the culture medium. The culture medium dispensed with the peptide was cultured in a CO2 incubator at 37° C. for 1 hour, transferred to an e-tube, mixed with 100 ul of PBS, and dispensed into a well plate. Afterwards, using a UV irradiator (VILBER LOURMAT, France), 6 J/cm2 ultraviolet rays were irradiated to NIH3T3 cells. The PBS in the well plate was then removed, 900 μL of the culture medium in which the peptides were dispensed was added, and the plate was cultured in a CO2 incubator at 37° C. for 72 hours. […] The dried culture was then dissolved in 20 mM Tris buffer solution and the absorbance at 560 nm was measured using a microplate reader (Molecular Devices, USA). […]

NIH3T3 cells [2] = test: Antioxidant effect on skin cells induced by ultraviolet rays (reactive oxygen species, DCF-DA, FACS); conditions: 50 μM or 100 μM peptide, 6 J/cm2 ultraviolet rays, 24 hours, FL1 fluorescence by flow cytometry, FIG. 5
Description: In this example, the aim was to confirm the effect of the peptide according to an embodiment on the antioxidant effect of skin cells induced by ultraviolet rays, by evaluating the level of reactive oxygen species in skin cells increased by ultraviolet irradiation.
Specifically, NIH3T3 cells were seeded in a 6-well plate at a density of 5×10^5 cells/well and cultured for 24 hours. The cells were then washed once with serum-free DMEM media, the culture medium was replaced with serum-free DMEM media, and 50 μM or 100 μM of the peptide consisting of the amino acid sequence of SEQ ID NO: 1 was dispensed to the culture medium. The culture medium dispensed with the peptide was cultured in a CO2 incubator at 37° C. for 1 hour, transferred to an e-tube, mixed with 100 ul of PBS, and dispensed into a well plate. Afterwards, using a UV irradiator (VILBER LOURMAT, France), 6 J/cm2 ultraviolet rays were irradiated to NIH3T3 cells. The PBS in the well plate was then removed, 900 μL of the culture medium in which the peptides were dispensed was added, and the plate was cultured in a CO2 incubator at 37° C. for 24 hours. The culture was then treated with DCFG-DA (2′,7′-dichlorofluorescin diacetate), wrapped in foil, and cultured in a CO2 incubator at 37° C. for 30 minutes. […] After washing the centrifuged cells with PBS, FL1 fluorescence values were measured through flow cytometry (FACS, BD, USA). […]

elastin = test: Expression of extracellular matrix constituent factor elastin (RT-PCR) in NIH3T3 cells; conditions: 50 μM or 100 μM peptide, 24 hours, FIG. 2 and FIG. 3
Description: (§1) In this example, the aim was to confirm the effect of the peptide according to an example on improving endogenous skin aging, including improvement of wrinkles and enhancement of elasticity, etc., by evaluating the expression levels of collagen type 1 (Col1a1), fibronectin, or elastin, which are known components of the dermis.
(§2) Specifically, NIH3T3 cells were seeded in a 6-well plate at a density of 3×10^5 cells/well and cultured for 24 hours. The cells were then washed once with serum-free DMEM media, and the culture medium was replaced with serum-free DMEM media. Thereafter, 50 μM or 100 μM of the peptide consisting of the amino acid sequence of SEQ ID NO: 1 was dispensed into the medium, and cultured in a CO2 incubator at 37° C. for 24 hours. The culture was then washed twice with PBS, and RNA was isolated from the culture using easy blue (iNtRON, Korea). Using an RT kit (Enzynomics, Korea), 1 μg of the isolated RNA was reverse transcribed to synthesize the respective cDNA. Polymerase chain reaction (PCR) was then performed using the cDNAs and primers Col1a1, fibronectin, and elastin. Meanwhile, the untreated group was used as the control group, and the group to which TGF-β1 was added (TGF-β1) was used as the positive control group, the nucleotide sequences of the primers used in this example are shown in Table 2 below.

NIH3T3 cells [3] = test: Proliferation of skin cells (SRB staining, survival rate of NIH3T3 cells); conditions: 50 μM or 100 μM peptide, 72 hours, serum-free DMEM, SRB absorbance at 560 nm, FIG. 1
Description: In this example, the aim was to confirm the effect of a peptide according to an example on proliferation of skin cells, by evaluating changes in survival rate of NIH3T3 cells, which are mouse fibroblasts.
Specifically, NIH3T3 cells were seeded in a […] at a density of 5×10^3 cells/well and cultured for 24 hours. The cells were then washed once with serum-free DMEM media, and the culture medium was replaced with serum-free DMEM media. Then, 50 μM or 100 μM of the peptide consisting of the amino acid sequence of SEQ ID NO: 1 was dispensed into the medium, and cultured in a CO2 incubator at 37° C. for 72 hours. The culture was then washed twice with PBS and treated with 4% paraformaldehyde (PFA) solution for 15 minutes to fix the cultured cells. The culture was then washed twice with distilled water, treated with SRB solution for 1 hour to stain the cells, washed with 1% acetic acid solution, and dried. The dried culture was then dissolved in 20 mM Tris buffer solution and the absorbance at 560 nm was measured using a microplate reader (Molecular Devices, USA). In this example, the untreated group was used as the control group, and the group to which insulin-like growth factor was added (IGF) was used as the positive control group.

fibronectin = test: Expression of extracellular matrix constituent factor fibronectin (RT-PCR) in NIH3T3 cells; conditions: 50 μM or 100 μM peptide, 24 hours, FIG. 2 and FIG. 3
Description: as §1, §2

collagen type 1 (Col1a1) = test: Expression of extracellular matrix constituent factor Col1a1 (RT-PCR) in NIH3T3 cells; conditions: 50 μM or 100 μM peptide, 24 hours, FIG. 2 and FIG. 3
Description: as §1, §2

SHNFREEPEMRR (Peptide 1) [SEQ ID NO: 1] was tested, and the “cell survival rate of fibroblasts reduced by ultraviolet irradiation” value (NIH3T3 cells [1]) was “restored”, the “level of reactive oxygen species in fibroblasts increased by ultraviolet irradiation” value (NIH3T3 cells [2]) was “reduced” and the expression of elastin (elastin) was “increased”. The proliferation of fibroblasts (NIH3T3 cells [3]) was “promoted”, the expression of fibronectin (fibronectin) was “increased” and the “expression of Col1a1” value (collagen type 1 (Col1a1)) was “increased”.
